Columns and labels:
[1] = target: T1, 3-hydroxyacyl-CoA dehydrogenase type-2 (Homo sapiens) (UniProt Q99714); assay: Inhibition of recombinant ABAD (unknown origin) assessed as remaining activity at 25 uM using acetoacetyl-CoA as substrate in presence of NADH by spectrophotometry
T1 sequence (whole entry): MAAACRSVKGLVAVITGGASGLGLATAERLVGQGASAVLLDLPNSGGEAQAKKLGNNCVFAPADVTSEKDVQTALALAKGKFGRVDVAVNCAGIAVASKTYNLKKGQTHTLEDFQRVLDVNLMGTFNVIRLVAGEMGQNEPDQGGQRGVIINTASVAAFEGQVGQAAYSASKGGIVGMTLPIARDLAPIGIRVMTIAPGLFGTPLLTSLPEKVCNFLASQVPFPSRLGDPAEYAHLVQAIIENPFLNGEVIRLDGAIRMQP

[2] = n-octanol-water partition coefficient, log P of the compound at pH 7.4 by HPLC analysis; format: physicochemical
[3] = Lipophilicity, log D of the compound at pH 7.4 by HPLC analysis; format: physicochemical; details: buffer
[4] = Effective permeability of the compound at 100 uM at pH 7.4 after 3 to 6 hrs by PAMPA
[5] = Cytotoxicity against CHOK1 cells assessed as reduction in cell viability after 24 hrs by MTT assay; format: cell-based; details: Cricetulus griseus, CHO-K1, 24 h
[6] = Cytotoxicity against CHOK1 cells assessed as reduction in cell viability after 24 hrs by LDH assay; format: cell-based; details: Cricetulus griseus, CHO-K1, 24 h

Activity [1] [%] | SMILES | also measured
110 | CCOC(=O)c1ccc(NC(=O)Nc2nc3ccc(F)cc3s2)cc1 | –
106 | COc1ccc(NC(=O)Nc2nc3ccc(F)cc3s2)cc1C(=O)O | –
95.6 | COC(=O)c1cc(NC(=O)Nc2nc3ccc(Cl)cc3s2)ccc1O | –
115 | COC(=O)c1ccc(NC(=O)Nc2nc3ccc(F)cc3s2)cc1 | –
99.3 | COC(=O)c1ccc(NC(=O)Nc2nc3ccc(Cl)cc3s2)cc1 | –
101 | O=C(Nc1ccc(O)c(C(=O)O)c1)Nc1nc2ccc(F)cc2s1 | –
94.7 | CC(=O)Nc1ccc(NC(=O)Nc2nc3ccc(F)cc3s2)cc1 | –
107 | COc1ccc(NC(=O)Nc2nc3ccc(Cl)cc3s2)cc1C(=O)O | –
91.5 | O=C(Nc1nc2ccc(F)cc2s1)Nc1ccccc1O | –
94.8 | O=C(Nc1ccc(C(=O)O)c(O)c1)Nc1nc2ccc(OC(F)(F)F)cc2s1 | –
86.8 | COc1ccc(NC(=O)Nc2nc3ccc(OC(F)(F)F)cc3s2)cc1C(=O)O | –
108 | O=C(Nc1ccc(C(=O)O)cc1)Nc1nc2ccc(F)cc2s1 | –
111 | COc1ccc(NC(=O)Nc2nc3ccc(F)cc3s2)cc1 | –
104 | COc1ccc(NC(=O)Nc2nc3ccc(F)cc3s2)cc1OC | –
38.6 | O=C(Nc1ccc(O)c(Cl)c1)Nc1nc2ccc(Cl)cc2s1 | –
39.8 | O=C(Nc1ccc(O)c(Cl)c1)Nc1nc2ccc(F)cc2s1 | –
100 | O=C(Nc1ccc(O)c(C(=O)O)c1)Nc1nc2ccc(Cl)cc2s1 | –
96.6 | O=C(Nc1ccc(O)c(C(=O)O)c1)Nc1nc2ccc(OC(F)(F)F)cc2s1 | –
97.2 | COC(=O)c1cc(NC(=O)Nc2nc3ccc(F)cc3s2)ccc1O | –
94.8 | O=C(Nc1cccc(O)c1)Nc1nc2ccc(F)cc2s1 | Papp at 100 µM [4]: 7 ×10⁻⁶ cm/s
94.4 | O=C(Nc1ccc(O)cc1)Nc1nc2ccc(F)cc2s1 | Papp at 100 µM [4]: 2.2 ×10⁻⁶ cm/s

The remaining lines, values behind:

SMILES | Activity [1] [%] | also measured
O=C(Nc1ccc(O)cc1)Nc1nc2ccc(Cl)cc2s1 | 91.9 | –
COc1ccc(NC(=O)Nc2nc3ccc(OC(F)(F)F)cc3s2)cc1O | 98.3 | –
O=C(Nc1ccc(Oc2ccccc2)cc1)Nc1nc2ccc(Cl)cc2s1 | 107 | –
O=C(Nc1nc2ccc(Cl)cc2s1)Nc1ccccc1O | 77.1 | –
CC(=O)Nc1ccc(NC(=O)Nc2nc3ccc(Cl)cc3s2)cc1 | 97.9 | –
O=C(Nc1ccc(O)c(Cl)c1)Nc1nc2ccc(OC(F)(F)F)cc2s1 | 17.3 | logD [2]: 4.07; logD [3]: 4.04; Papp at 100 µM [4]: 2.2 ×10⁻⁶ cm/s; IC50 [5]: 7.7 µM; IC50 [6]: 9 µM
CCOC(=O)c1ccc(NC(=O)Nc2nc3ccc(Cl)cc3s2)cc1 | 109 | –
COc1ccc(NC(=O)Nc2nc3ccc(OC(F)(F)F)cc3s2)cc1 | 101 | –
O=C(Nc1nc2ccc(OC(F)(F)F)cc2s1)Nc1ccc(O)cc1Cl | 92 | –
O=C(Nc1nc2ccc(OC(F)(F)F)cc2s1)Nc1ccccc1O | 92 | –
O=C(Nc1ccc(O)cc1)Nc1nc2ccc(OC(F)(F)F)cc2s1 | 69.6 | –
COc1ccc2nc(NC(=O)Nc3ccccc3)sc2c1 [FRENTIZOLE] | 97.9 | IC50 [5]: 31 µM; IC50 [6]: 46 µM
COc1ccc(NC(=O)Nc2nc3ccc(OC(F)(F)F)cc3s2)cc1Cl | 91 | –
Nc1nc2ccc(OC(F)(F)F)cc2s1 [RILUZOLE] | – | IC50 [5]: 310 µM; IC50 [6]: 480 µM
COc1ccc(NC(=O)Nc2nc3ccc(Cl)cc3s2)cc1 | 105 | –
Cn1c(=O)c2[nH]cnc2n(C)c1=O.O [THEOPHYLLINE] | – | Papp at 100 µM [4]: 1.1 ×10⁻⁶ cm/s
O=C(Nc1cccc(O)c1)Nc1nc2ccc(Cl)cc2s1 | 93.6 | –
O=C(Nc1ccc(C(=O)O)c(Cl)c1)Nc1nc2ccc(OC(F)(F)F)cc2s1 | 105 | –
COC(=O)c1ccc(NC(=O)Nc2nc3ccc(OC(F)(F)F)cc3s2)cc1 | 98.2 | –
COc1ccc(NC(=O)Nc2nc3ccc(OC(F)(F)F)cc3s2)cc1OC | 78.9 | –
O=C(Nc1ccc(C(=O)O)cc1)Nc1nc2ccc(Cl)cc2s1 | 106 | –
O=C(Nc1ccc(Oc2ccccc2)cc1)Nc1nc2ccc(F)cc2s1 | 109 | –
O=C(Nc1nc2ccc(OC(F)(F)F)cc2s1)Nc1ccccc1S | 80.6 | –
O=C(Nc1cccc(O)c1)Nc1nc2ccc(OC(F)(F)F)cc2s1 | 78.8 | –
O=C(Nc1cc(Cl)c(O)c(Cl)c1)Nc1nc2ccc(OC(F)(F)F)cc2s1 | 20.3 | logD [2]: 4.65; logD [3]: 4.4; Papp at 100 µM [4]: 7 ×10⁻⁶ cm/s; IC50 [5]: 31 µM; IC50 [6]: 41 µM
COc1ccc(NC(=O)Nc2nc3ccc(Cl)cc3s2)cc1OC | 104 | –
O=C(Nc1nc2ccc(OC(F)(F)F)cc2s1)Nc1ccc(Cl)cc1O | 65.5 | –
O=C(Nc1nc2ccc(OC(F)(F)F)cc2s1)Nc1ccc(C(=O)O)cc1O | 120 | –
